These compounds were tested on HCT-116 cells stably transfected with a Luciferase reporter gene under the control of HIF-responsive element (assay: HIF-Luciferase Assay). Details: Homo sapiens, HCT-116, HIF-Luciferase Assay, HCT-116 reporter cells, overnight at 1% oxygen; group >10, unit inferred.
Assay type: cell-based
Procedure: HCT-116 cells stably transfected with a Luciferase reporter gene under the control of HIF-responsive element were plated in white 96- or 384-well plates at 30,000 or 5,000 cells/well, respectively, in 50 μL/well media (RPMI with 10% fetal bovine serum and 100 μg/mL Hygromycin). Cells were incubated overnight at 37° C. in a humidified incubator containing 5% CO2 under normal oxygen. The next day test compounds were added to the wells at various concentrations (0-10 μM, 0.1% final DMSO concentration) and placed in a hypoxic chamber overnight at 1% oxygen. Following the exposure to hypoxic conditions, 50 μL/well of Bright Glo reagent (Promega, Wisconsin, USA) was added to the wells and luminescence was measured after 5 min. Cells incubated under normal oxygen levels were used as background control. […] Compounds that have IC50 values between 1 μM and 10 μM include those of Examples 8, 16, 38, 39, 40, 41, 42, 43, 47, 48, 53, 54, 56, 57, 66, 69, and 72.
With `Cc1ccc(Cn2nc(-c3nc4cc(C(C)(C)c5ccccc5)ccc4o3)cc2C)cc1` [Example 32, 2-[5-methyl-1-(4-methylbenzyl)-1H-pyrazol-3-yl]-5-(1-methyl-1-phenylethyl)-1,3-benzoxazole] the IC50 was over 10000 nM.

Same assay, conditions: Homo sapiens, HCT-116, HIF-Luciferase Assay, HCT-116 reporter cells, overnight at 1% oxygen; individual values
With `Cc1ccc(Cn2nc(-c3nc(-c4ccc(Cn5cccc5)cc4)no3)cc2C)cc1` [Example 140, 5-[5-Methyl-1-(4-methylbenzyl)-1H-pyrazol-3-yl]-3-[4-(1H-pyrrol-1-yl-methyl)phenyl]-1,2,4-oxadiazole] the IC50 was 40 nM.
Compound `Cc1ccc(Cn2nc(-c3nc(-c4ccc(C(C)(C)C)cc4)co3)cc2C)cc1` [Example 77, 4-(4-tert-Butylphenyl)-2-[5-methyl-1-(4-methylbenzyl)-1H-pyrazol-3-yl]-1,3-oxazole] has an IC50 of 20 nM.
Compound `Cc1ccc(Cn2nc(-c3nc4ccc(-c5ccc(Cl)cc5)cc4[nH]3)cc2C)cc1` [Example 64, 6-(4-chlorophenyl)-2-[5-methyl-1-(4-methylbenzyl)-1H-pyrazol-3-yl]-1H-benzimidazole] has an IC50 of 3 nM.
Compound `Cc1ccc(Cn2nc(-c3nc(-c4ccc(OC(F)(F)F)cc4)no3)cc2C)cc1` [Example 1] has an IC50 of 30 nM.
In the case of `Cc1cc(-c2nc(-c3ccc(OC(F)(F)F)cc3)no2)nn1Cc1ccc(C#N)cc1` [Example 121, 4-[(5-methyl-3-3-[4-(trifluoromethoxy)phenyl]-1,2,4-oxadiazol-5-yl-1H-pyrazol-1-yl)methyl]benzonitrile], the IC50 is reported as 30 nM.

Same assay, conditions: Homo sapiens, HCT-116, HIF-Luciferase Assay, HCT-116 reporter cells, overnight at 1% oxygen; potency groups
For `Cc1ccc(Cn2nc(-c3nc4ccc(Oc5ccccc5)cc4o3)cc2C)cc1` [Example 30, 2-[5-methyl-1-(4-methylbenzyl)-1H-pyrazol-3-yl]-6-phenoxy-1,3-benzoxazole], the IC50 was at most 1000 nM.
Work on `Cc1ccc(Cn2nc(-c3nc4cc5ccccc5cc4[nH]3)cc2C)cc1` [Example 47, 2-[5-methyl-1-(4-methylbenzyl)-1H-pyrazol-3-yl]-1H-naphtho[2,3-d]imidazole] yielded an IC50 of 1000 to 10000 nM.
`Cc1ccc(Cn2nc(-c3nc4cc(-c5cccc(F)c5)ccc4o3)cc2C)cc1` [Example 34, 5-(3-fluorophenyl)-2-[5-methyl-1-(4-methylbenzyl)-1H-pyrazol-3-yl]-1,3-benzoxazole] showed an IC50 of at most 1000 nM.
For `Cc1ccc(Cn2nc(-c3nc(-c4ccc(C5CCCCC5)cc4)no3)cc2C)cc1` [Example 11, 3-(4-cyclohexylphenyl)-5-[5-methyl-1-(4-methylbenzyl)-1H-pyrazol-3-yl]-1,2,4-oxadiazole], the IC50 was at most 1000 nM.
`Cc1ccc(Cn2nc(-c3nc4ccc(Br)cc4[nH]3)cc2C)cc1` [Example 37, 6-Bromo-2-[5-methyl-1-(4-methylbenzyl)-1H-pyrazol-3-yl]-1H-benzimidazole] was tested, and the IC50 was at most 1000 nM.
Compound `Cc1ccc(Cn2nc(-c3nc(-c4ccc(C(C)(C)C)cc4)co3)cc2C)cc1` [Example 77, 4-(4-tert-Butylphenyl)-2-[5-methyl-1-(4-methylbenzyl)-1H-pyrazol-3-yl]-1,3-oxazole] has an IC50 of at most 1000 nM.
`Cc1ccc(Cn2nc(-c3nc4ccc(-c5ccccc5)cc4[nH]3)cc2C)cc1` [Example 45, 2-[5-methyl-1-(4-methylbenzyl)-1H-pyrazol-3-yl]-6-phenyl-1H-benzimidazole] gave an IC50 of at most 1000 nM.
`Cc1ccc(Cn2nc(-c3nc4cc(-c5ccccc5)ccc4o3)cc2C)cc1` [Example 29, 2-[5-Methyl-1-(4-methylbenzyl)-1H-pyrazol-3-yl]-5-phenyl-1,3-benzoxazole] was tested, and the IC50 was at most 1000 nM.
`Cc1ccc(Cn2nc(-c3nc(-c4ccc(OCc5ccc(Cl)cc5)cc4)no3)cc2C)cc1` [Example 2, 3-{4-[(4-chlorobenzyl)oxy]phenyl}-5-[5-methyl-1-(4-methylbenzyl)-1H-pyrazol-3-yl]-1,2,4-oxadiazole] was tested, and the IC50 was at most 1000 nM.
`Cc1ccc(Cn2nc(-c3nc4ccc(-c5ccc(Cl)cc5)cc4[nH]3)cc2C)cc1` [Example 64, 6-(4-chlorophenyl)-2-[5-methyl-1-(4-methylbenzyl)-1H-pyrazol-3-yl]-1H-benzimidazole] was tested, and the IC50 was at most 1000 nM.
`Cc1ccc(Cn2nc(-c3nc4ccc(-c5ccccc5F)cc4[nH]3)cc2C)cc1` [Example 60, 6-(2-fluorophenyl)-2-[5-methyl-1-(4-methylbenzyl)-1H-pyrazol-3-yl]-1H-benzimidazole] was tested, and the IC50 was at most 1000 nM.
In the case of `Cc1ccc(Cn2nc(-c3nc4ccc(OC(F)(F)F)cc4[nH]3)cc2C)cc1` [Example 58, 2-[5-methyl-1-(4-methylbenzyl)-1H-pyrazol-3-yl]-6-(trifluoromethoxy)-1H-benzimidazole], the IC50 is reported as at most 1000 nM.
In the case of `Cc1ccc(Cn2nc(-c3nc4ccccc4[nH]3)cc2C)cc1` [Example 38, 2-[5-methyl-1-(4-methylbenzyl)-1H-pyrazol-3-yl]-1H-benzimidazole], the IC50 is reported as 1000 to 10000 nM.
In the case of `Cc1ccc(Cn2nc(-c3nc4ccc(N5CCOCC5)cc4[nH]3)cc2C)cc1` [Example 53, 2-[5-methyl-1-(4-methylbenzyl)-1H-pyrazol-3-yl]-6-morpholin-4-yl-1H-benzimidazole], the IC50 is reported as 1000 to 10000 nM.
For `Cc1ccc(Cn2nc(-c3nc(-c4ccc(N5CCCC(C)C5)cc4)no3)cc2C)cc1` (centres unmarked) [Example 6, 3-methyl-1-(4-{5-[5-methyl-1-(4-methylbenzyl)-1H-pyrazol-3-yl]-1,2,4-oxadiazol-3-yl}phenyl)piperidine], the IC50 was at most 1000 nM.
`Cc1ccc(Cn2nc(-c3nc4ccc(Cl)cc4[nH]3)cc2C)cc1` [Example 41, 6-chloro-2-[5-methyl-1-(4-methylbenzyl)-1H-pyrazol-3-yl]-1H-benzimidazole] showed an IC50 of 1000 to 10000 nM.
With `Cc1ccc(Cn2nc(-c3nc(-c4ccc(OC(C)C)cc4)no3)cc2C)cc1` [Example 20, 3-(4-Isopropoxyphenyl)-5-[5-methyl-1-(4-methylbenzyl)-1H-pyrazol-3-yl]-1,2,4-oxadiazole] the IC50 was at most 1000 nM.
With `Cc1ccc(Cn2nc(-c3nc(-c4ccccc4)no3)cc2C)cc1` [Example 9, 5-[5-methyl-1-(4-methylbenzyl)-1H-pyrazol-3-yl]-3-phenyl-1,2,4-oxadiazole] the IC50 was at most 1000 nM.
With `Cc1ccc(Cn2nc(-c3nc4cc(Cl)c(F)cc4[nH]3)cc2C)cc1` [Example 56, 5-chloro-6-fluoro-2-[5-methyl-1-(4-methylbenzyl)-1H-pyrazol-3-yl]-1H-benzimidazole] the IC50 was 1000 to 10000 nM.
`Cc1ccc(Cn2nc(-c3nc(-c4ccncc4)no3)cc2C)cc1` [Example 14, 4-{5-[5-Methyl-1-(4-methylbenzyl)-1H-pyrazol-3-yl]-1,2,4-oxadiazol-3-yl}pyridine] showed an IC50 of at most 1000 nM.
In the case of `Cc1ccc(Cn2nc(-c3nc4ccc(-c5cccc(Cl)c5)cc4[nH]3)cc2C)cc1` [Example 63, 6-(3-chlorophenyl)-2-[5-methyl-1-(4-methylbenzyl)-1H-pyrazol-3-yl]-1H-benzimidazole], the IC50 is reported as at most 1000 nM.
In the case of `Cc1ccc(Cn2nc(-c3nc4c(C)cc(Br)cc4[nH]3)cc2C)cc1` [Example 57, 6-bromo-4-methyl-2-[5-methyl-1-(4-methylbenzyl)-1H-pyrazol-3-yl]-1H-benzimidazole], the IC50 is reported as 1000 to 10000 nM.
`Cc1ccc(Cn2nc(-c3nc4ccc(C5CCCCC5)cc4[nH]3)cc2C)cc1` [Example 51, 6-cyclohexyl-2-[5-methyl-1-(4-methylbenzyl)-1H-pyrazol-3-yl]-1H-benzimidazole] was tested, and the IC50 was at most 1000 nM.
Work on `Cc1ccc(Cn2nc(-c3nc(-c4ccc(OC(F)(F)F)cc4)no3)cc2C)cc1` [Example 1] yielded an IC50 of at most 1000 nM.
`Cc1ccc(Cn2nc(-c3nc(-c4ccc(N5CCOC5=O)cc4)no3)cc2C)cc1` [Example 25, 3-(4-{5-[5-methyl-1-(4-methylbenzyl)-1H-pyrazol-3-yl]-1,2,4-oxadiazol-3-yl}phenyl)-1,3-oxazolidin-2-one] was tested, and the IC50 was at most 1000 nM.
Compound `Cc1ccc(Cn2nc(-c3nc(-c4ccc(-c5ccc(Cl)cc5)cc4)co3)cc2C)cc1` [Example 76, 4-(4′-chlorobiphenyl-4-yl)-2-[5-methyl-1-(4-methylbenzyl)-1H-pyrazol-3-yl]-1,3-oxazole] has an IC50 of at most 1000 nM.
`Cc1ccc(Cn2nc(-c3nc(-c4ccc(-c5ccc(OC(F)(F)F)cc5)cc4)no3)cc2C)cc1` [Example 5, 5-[5-methyl-1-(4-methylbenzyl)-1H-pyrazol-3-yl]-3-[4′-(trifluoromethoxy)biphenyl-4-yl]-1,2,4-oxadiazole] gave an IC50 of at most 1000 nM.
For `Cc1ccc(Cn2nc(-c3nc4ccc(C(=O)c5ccccc5)cc4[nH]3)cc2C)cc1` [Example 46, {2-[5-methyl-1-(4-methylbenzyl)-1H-pyrazol-3-yl]-1H-benzimidazol-6-yl}(phenyl)methanone], the IC50 was at most 1000 nM.
For `Cc1ccc(Cn2nc(-c3nc(-c4ccccc4)co3)cc2C)cc1` [Example 74, 2-[5-Methyl-1-(4-methylbenzyl)-1H-pyrazol-3-yl]-4-phenyl-1,3-oxazole], the IC50 was at most 1000 nM.
`Cc1ccc(Cn2nc(-c3nc(-c4ccc(N5CCOCC5)cc4)no3)cc2C)cc1` [Example 21, 4-(4-{5-[5-Methyl-1-(4-methylbenzyl)-1H-pyrazol-3-yl]-1,2,4-oxadiazol-3-yl}phenyl)morpholine] showed an IC50 of at most 1000 nM.
Compound `Cc1ccc(Cn2nc(-c3nc(-c4ccc(C(F)(F)F)nc4)no3)cc2C)cc1` [Example 17, 5-{5-[5-methyl-1-(4-methylbenzyl)-1H-pyrazol-3-yl]-1,2,4-oxadiazol-3-yl}-2-(trifluoromethyl)pyridine] has an IC50 of at most 1000 nM.
`Cc1ccc(Cn2nc(-c3nc4ccc(-c5cccc(F)c5)cc4[nH]3)cc2C)cc1` [Example 61, 6-(3-fluorophenyl)-2-[5-methyl-1-(4-methylbenzyl)-1H-pyrazol-3-yl]-1H-benzimidazole] showed an IC50 of at most 1000 nM.
With `Cc1ccc(Cn2nc(-c3nc4cc5c(cc4[nH]3)OC(F)(F)O5)cc2C)cc1` [Example 55, 2,2-difluoro-6-[5-methyl-1-(4-methylbenzyl)-1H-pyrazol-3-yl]-5H-[1,3]dioxolo[4,5-f]benzimidazole] the IC50 was at most 1000 nM.
`Cc1ccc(Cn2nc(-c3nc4ccc(C)cc4[nH]3)cc2C)cc1` [Example 39, 6-methyl-2-[5-methyl-1-(4-methylbenzyl)-1H-pyrazol-3-yl]-1H-benzimidazole] showed an IC50 of 1000 to 10000 nM.
`Cc1ccc(Cn2nc(-c3nc4cc5cn[nH]c5cc4[nH]3)cc2C)cc1` [Example 48, 6-[5-methyl-1-(4-methylbenzyl)-1H-pyrazol-3-yl]-1,7-dihydroimidazo[4,5-f]indazole] gave an IC50 of 1000 to 10000 nM.

Source: patent US8796253B2, “Heteroaryl substituted pyrazole derivatives useful for treating hyper-proliferative disorders and diseases associated with angiogenesis” (Bayer Intellectual Property GmbH, priority 2007, dated 2014)
